This note sets out measurements from ChEMBL document CHEMBL1122192, “Nitro and amino derivatives of lucanthone as antitumor agents” (1982).

The test system of assay [1] is P388. Briefly: In vivo antitumor activity against P-388 lymphocytic leukemia at the dose of 25 mg/kg. Format: functional, Mus musculus.
In assay [2] the test system is P388. Briefly: In vivo antitumor activity against P-388 lymphocytic leukemia at the dose of 50 mg/kg. Format: functional, Mus musculus.
Assay [3] has as its system P388. Put plainly: In vivo antitumor activity against P-388 lymphocytic leukemia at the dose of 12.5 mg/kg. Format: functional, Mus musculus.
Assay [4] concerns P388. Briefly: In vivo antitumor activity against P-388 lymphocytic leukemia at the dose of 200 mg/kg; Toxic. Set-up: dose 200 mg/kg. Format: functional, organism-based. The conditions noted are these: Mus musculus.
Assay [5] relates to P388. Put plainly: In vivo antitumor activity against P-388 lymphocytic leukemia at the dose of 100 mg/kg. Format: functional, Mus musculus.
Assay [6] concerns P388. Put plainly: In vivo antitumor activity against P-388 lymphocytic leukemia at the dose of 200 mg/kg. Format: functional, Mus musculus.

As to `O=c1c2ccccc2sc2c([N+](=O)[O-])ccc(NCCNCCO)c12`, the T/C with P388 [1] is 141; with P388 [2], 120; with P388 [3], 133.
In the case of `CN(C)CCNc1ccc(N)c2sc3ccccc3c(=O)c12`, the T/C entry in the assay on P388 [4] was “Toxic”; with P388 [2], 100; with P388 [5], 121.
Consider `CCN(CC)CCNc1ccc([N+](=O)[O-])c2sc3ccccc3c(=O)c12`, for which the T/C is 142 with P388 [2], 178 in the assay on P388 [6] and 145 in the assay with P388 [5].
For `CCN(CC)CCNc1ccc(C)c2sc3ccc(N)cc3c(=O)c12`, the T/C was found to be 103 in the assay on P388 [1], 138 in the assay with P388 [2] and 120 in the assay with P388 [3].
As for `CN(C)CCNc1ccc([N+](=O)[O-])c2sc3ccccc3c(=O)c12`, the T/C turned out to be 135 in the assay with P388 [1], 143 in the assay with P388 [2], 114 in the assay on P388 [3] and 103 with P388 [5].
On to `CCN(CC)CCNc1ccc(C)c2sc3c(N)cccc3c(=O)c12`, for which the T/C is given as 100 with P388 [2], 123 in the assay with P388 [6] and 113 in the assay on P388 [5].
As for `Nc1ccc(NCCNCCO)c2c(=O)c3ccccc3sc12`, the T/C with P388 [2] turned out to be 132.
Consider `CCN(CC)CCNc1ccc(N)c2sc3ccccc3c(=O)c12`, for which the results for the T/C in the assay with P388 [2], with P388 [6] and with P388 [5] were 107, 125 and 122, respectively.
